# Results from patent publication US20220117938A1, “COMBINATON THERAPY WITH A DON PRODRUG AND AN IMMUNE CHECKPOINT INHIBITOR” (DRACEN PHARMACEUTICALS, INC., priority 2019, published 2022).
# Tested on: CT26.WT tumors
# Experiment: Anti-tumor efficacy of Compound 1 and Compound 1 in combination with anti-PD-1 in the CT26.WT syngeneic model (Example 10)
# Format: in vivo, mice
# Method: Female BALB/c mice were inoculated subcutaneously in the right flank with CT26.WT cells for tumor development. Six days after tumor inoculation, mice with tumor sizes ranging from 30-81 mm^3 (average tumor size 55 mm^3) were selected and assigned into 10 groups using stratified randomization with 8 mice per group based upon their tumor volumes. The treatments were started from the day of randomization (defined as D0), Group 1 was treated with Vehicle control, 10 mpk, SC, qd 5 days on (Mon-Fri)×4 cycles; Group 2 was treated with Anti-PD-1, 10 mpk, IP, q4d×6; Group 3 was treated with Compound 1, 1.4 mpk, SC, qd 5 days on (Mon-Fri)×4 cycles; Group 4 was treated with Compound 1+anti-PD-1, 1.4 mpk+10 mpk, SC, qd 5 days on (Mon-Fri)×4 cycles+IP, q4d×6; Group 5 was treated with Compound 1, 10.5 mpk, IV, biw (Mon, Thu)×4 cycles; Group 6 was treated with Compound 1+anti-PD-1, 10.5 mpk+10 mpk, IV, biw (Mon, Thu)×4 cycles+IP, q4d×6; Group 7 was treated with Compound 1, 7 mpk IV, tiw (Mon, Wed, Fri)×4 cycles; Group 8 was treated with Compound 1+anti-PD-1, 7 mpk+10 mpk, IV, tiw (Mon, Wed, Fri)×4 cycles+IP, q4d×6; Group 9 was treated with Compound 1, 7 mpk IV, tiw (Mon, Tue, Wed)×4 cycles; and Group 10 was treated with Compound 1+anti-PD-1, 7 mpk+10 mpk, IV, tiw (Mon, Tue, Wed)×4 cycles+IP, q4d×6. The tumor sizes were measured three times per week during the treatment. Survival was monitored with tumor volume exceeding 2000 mm^3 as endpoint. The entire study was terminated on D56 after start of the treatment. All treatments were well-tolerated without any adverse effects or significant body weight loss.
# [1] = Group 3, 1.4 mpk SC qd Mon-Fri x4 cycles
# [2] = Group 3, 1.4 mpk SC qd Mon-Fri x4 cycles, day 14
# [3] = Group 5, 10.5 mpk IV biw x4 cycles
# [4] = Group 5, 10.5 mpk IV biw x4 cycles, day 14
# [5] = Group 7, 7 mpk IV tiw (Mon,Wed,Fri) x4 cycles
# [6] = Group 7, 7 mpk IV tiw (Mon,Wed,Fri) x4 cycles, day 14
# [7] = Group 9, 7 mpk IV tiw (Mon,Tue,Wed) x4 cycles
# [8] = Group 9, 7 mpk IV tiw (Mon,Tue,Wed) x4 cycles, day 14
compound,measurement,setting,value
"CC(=O)N[C@@H](Cc1c[nH]c2ccccc12)C(=O)N[C@@H](CCC(=O)C=[N+]=[N-])C(=O)OC(C)C [Compound 1, Isopropyl (S)-2-((S)-2-acetamido-3-(1H-indol-3-yl)propanamido)-6-diazo-5-oxohexanoate]",ILS,[1],81.0%
same,MST,[1],38 days
same,RTV at day 14,[1],3.07 ± 0.38
same,Tumor Size at day 14,[1],172 ± 29 mm^3
same,Tumor volume,"Group 3, 1.4 mpk SC qd Mon-Fri x4 cycles, day 0",56 ± 5 mm^3
same,Tumor volume,"Group 3, 1.4 mpk SC qd Mon-Fri x4 cycles, day 2",59 ± 5 mm^3
same,Tumor volume,"Group 3, 1.4 mpk SC qd Mon-Fri x4 cycles, day 11",103 ± 13 mm^3
same,T/C,[2],17.06%
same,TGI,[2],88.16%
same,Tumor volume,[2],172 ± 29 mm^3
same,Tumor volume,"Group 3, 1.4 mpk SC qd Mon-Fri x4 cycles, day 16",163 ± 20 mm^3
same,Tumor volume,"Group 3, 1.4 mpk SC qd Mon-Fri x4 cycles, day 18",191 ± 26 mm^3
same,Tumor volume,"Group 3, 1.4 mpk SC qd Mon-Fri x4 cycles, day 21",258 ± 25 mm^3
same,Tumor volume,"Group 3, 1.4 mpk SC qd Mon-Fri x4 cycles, day 23",276 ± 36 mm^3
same,Tumor volume,"Group 3, 1.4 mpk SC qd Mon-Fri x4 cycles, day 25",278 ± 42 mm^3
same,Tumor volume,"Group 3, 1.4 mpk SC qd Mon-Fri x4 cycles, day 28",466 ± 62 mm^3
same,Tumor volume,"Group 3, 1.4 mpk SC qd Mon-Fri x4 cycles, day 30",682 ± 103 mm^3
same,Tumor volume,"Group 3, 1.4 mpk SC qd Mon-Fri x4 cycles, day 32",1012 ± 189 mm^3
same,Tumor volume,"Group 3, 1.4 mpk SC qd Mon-Fri x4 cycles, day 35",1417 ± 260 mm^3
same,ILS,[3],76.2%
same,MST,[3],37 days
same,RTV at day 14,[3],3.21 ± 1.03
same,Tumor Size at day 14,[3],170 ± 51 mm^3
same,Tumor volume,"Group 5, 10.5 mpk IV biw x4 cycles, day 0",56 ± 5 mm^3
same,Tumor volume,"Group 5, 10.5 mpk IV biw x4 cycles, day 2",52 ± 5 mm^3
same,Tumor volume,"Group 5, 10.5 mpk IV biw x4 cycles, day 11",113 ± 24 mm^3
same,T/C,[4],17.83%
same,TGI,[4],88.39%
same,Tumor volume,[4],170 ± 51 mm^3
same,Tumor volume,"Group 5, 10.5 mpk IV biw x4 cycles, day 16",214 ± 60 mm^3
same,Tumor volume,"Group 5, 10.5 mpk IV biw x4 cycles, day 18",226 ± 59 mm^3
same,Tumor volume,"Group 5, 10.5 mpk IV biw x4 cycles, day 21",381 ± 119 mm^3
same,Tumor volume,"Group 5, 10.5 mpk IV biw x4 cycles, day 23",439 ± 128 mm^3
same,Tumor volume,"Group 5, 10.5 mpk IV biw x4 cycles, day 25",562 ± 197 mm^3
same,Tumor volume,"Group 5, 10.5 mpk IV biw x4 cycles, day 28",849 ± 264 mm^3
same,ILS,[5],76.2%
same,MST,[5],37 days
same,RTV at day 14,[5],3.34 ± 0.97
same,Tumor Size at day 14,[5],201 ± 67 mm^3
same,Tumor volume,"Group 7, 7 mpk IV tiw (Mon,Wed,Fri) x4 cycles, day 0",55 ± 5 mm^3
same,Tumor volume,"Group 7, 7 mpk IV tiw (Mon,Wed,Fri) x4 cycles, day 2",61 ± 9 mm^3
same,Tumor volume,"Group 7, 7 mpk IV tiw (Mon,Wed,Fri) x4 cycles, day 11",111 ± 33 mm^3
same,T/C,[6],18.56%
same,TGI,[6],85.12%
same,Tumor volume,[6],201 ± 67 mm^3
same,Tumor volume,"Group 7, 7 mpk IV tiw (Mon,Wed,Fri) x4 cycles, day 16",238 ± 94 mm^3
same,Tumor volume,"Group 7, 7 mpk IV tiw (Mon,Wed,Fri) x4 cycles, day 18",256 ± 101 mm^3
same,Tumor volume,"Group 7, 7 mpk IV tiw (Mon,Wed,Fri) x4 cycles, day 21",471 ± 261 mm^3
same,ILS,[7],92.9%
same,MST,[7],40.5 days
same,RTV at day 14,[7],2.32 ± 0.84
same,Tumor Size at day 14,[7],132 ± 46 mm^3
same,Tumor volume,"Group 9, 7 mpk IV tiw (Mon,Tue,Wed) x4 cycles, day 0",56 ± 4 mm^3
same,Tumor volume,"Group 9, 7 mpk IV tiw (Mon,Tue,Wed) x4 cycles, day 11",79 ± 19 mm^3
same,T/C,[8],12.89%
same,TGI,[8],92.20%
same,Tumor volume,[8],132 ± 46 mm^3
same,Tumor volume,"Group 9, 7 mpk IV tiw (Mon,Tue,Wed) x4 cycles, day 16",131 ± 52 mm^3
same,Tumor volume,"Group 9, 7 mpk IV tiw (Mon,Tue,Wed) x4 cycles, day 18",160 ± 65 mm^3
same,Tumor volume,"Group 9, 7 mpk IV tiw (Mon,Tue,Wed) x4 cycles, day 21",248 ± 104 mm^3
same,Tumor volume,"Group 9, 7 mpk IV tiw (Mon,Tue,Wed) x4 cycles, day 23",252 ± 103 mm^3
same,Tumor volume,"Group 9, 7 mpk IV tiw (Mon,Tue,Wed) x4 cycles, day 25",255 ± 106 mm^3
same,Tumor volume,"Group 9, 7 mpk IV tiw (Mon,Tue,Wed) x4 cycles, day 28",447 ± 186 mm^3
same,Tumor volume,"Group 9, 7 mpk IV tiw (Mon,Tue,Wed) x4 cycles, day 30",695 ± 300 mm^3
